Reference: patent publication US20040248801A1, “Methods and reagents for regulation of cellular responses in biological systems” (priority 2000, published 2004)

Columns and labels:
B. subtilis 011085 = test: B. subtilis capillary accumulation assay; format: cell-based, Bacillus subtilis; conditions: saccharide residue concentration; 37° C., 30 min
Description: FIG. 4: Results of B. subtilis capillary accumulation assays using ROMP-derived glucose ligands (compound 5-7, Scheme 1). Buffer alone, glucose, or glucose-bearing compounds 5-7 were used as attractants in the capillary accumulation assay. Results are shown for glucose, compound 5, compound 6, and compound 7. Results are the average of at least four trials performed in duplicate and error bars represent single standard deviations.
To test the generality of the observed valency-dependent differences in chemotactic activities and to investigate the role of membrane permeability in responses to our ligands, chemotactic experiments in B. subtilis were conducted. B. subtilis is a gram-positive bacterium that, like gram-negative E. coli, is able to respond to saccharide chemoattractants. In the case of B. subtilis, the multivalent ligands can directly interact with saccharide-sensing receptors, without having to first traverse the outer membrane. Glucose is a chemoattractant for B. subtilis, but galactose is not. Glucose-carrying ligands (compounds 5-7, Scheme 1) were effective chemoattractants for B. subtilis as shown in capillary accumulation assays. […] Free chemoattractant signal glucose had maximal activity as a chemoattractant at 0.5 mM. In analogy to observations with E. coli, as the valency of the ligand increases, the saccharide residue concentration of maximum chemotaxis decreases. […] The results observed indicate that in evolutionarily divergent bacteria E. coli and B. subtilis, the valency of the attractant influences chemotactic response.
E. coli from an overnight culture were grown in LB to OD550 0.4-0.6, washed twice with E. coli chemotaxis buffer, and then partially permeabilized. Bacteria were resuspended in chemotaxis buffer to an OD550 0.1 and utilized in the capillary accumulation assay at 30° C. for 60 min, as previously described. […] Data was analyzed using the Q and Students tests.

E. coli AW405 = test: video microscopy motion analysis of bacteria; format: cell-based, Escherichia coli; conditions: first 5-15 seconds after addition of attractant
Protocol: FIG. 2A: Results of video microscopy motion analysis experiments. Bacteria (Escherichia coli) were treated with buffer alone, galactose, or compound 1 or 3 (Scheme 1) at the indicated saccharide concentrations. The results represent the average from at least five independent experiments performed in triplicate. Error bars represent the deviation between per-second averages during the ten second interval.
Ligands functionalized with galactose such as monovalent ligand 1 and multivalent ligand 3, also serve as attractants in vivo. […] To observe the effects of synthetic ligands on tumbling frequency, E. coli were treated with galactose or galactose-bearing ligands, and bacterial motion was recorded and analyzed using the method of Sager et al.. The tumbling frequency was assessed by averaging the mean angular velocity of the paths obtained in the first 5-15 seconds after addition of attractant (FIG. 2A). […]
Partially permeabilized bacteria (25 μM EDTA for 3 min. at room temperature, then quench with 50 μM CaCl2) at an OD550 of 0.1 were placed under a cover slip supported by additional cover slips in the method of Sager et al.. […] The bacterial motion at 28° C. was recorded, and the paths were analyzed using the ExpertVision system. Paths derived from the first 5 to 15 seconds following the introduction of attractant were analyzed. […] Data were analyzed using the Q and Students tests.

E. coli = conditions: galactose as attractant [34]; cited from earlier work
His-tagged FGF-8b = target: T1, His-tagged FGF-8b (Homo sapiens, UniProt P55075); test: cross-linking of FGF-8b (EGS, SDS-PAGE); format: binding; conditions: increasing ratio of polymer or heparin to FGF-8b
T1 sequence (P55075 23-215 isoform P55075-3 limits assumed): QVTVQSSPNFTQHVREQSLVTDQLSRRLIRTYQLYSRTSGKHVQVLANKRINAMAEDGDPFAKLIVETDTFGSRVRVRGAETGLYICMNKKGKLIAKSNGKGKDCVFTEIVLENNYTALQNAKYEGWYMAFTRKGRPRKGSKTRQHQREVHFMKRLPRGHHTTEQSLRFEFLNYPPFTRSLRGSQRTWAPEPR
Protocol: FIGS. 15A and B are illustrations of SDS-PAGE-gels (12%, under reducing conditions) comparing cross-linking of FGF-8b mediated by nickel-chelating polymer (FIG. 15A) and heparin (FIG. 15B). FGF-8b was incubated with polymer 6 for 1 hour at 0° C. The ratio of FGF-8b to polymer was as follows: a. 1:0.001, b. 1:0.003, c. 1:0.01, d. 1:0.03, e. 1:0.1, f. 1:0.3, f. 1:1. EGS (ethylene glycol bis[succinimidylsuccinate]) was added, and cross-linking was allowed to proceed for 5 minutes at 0° C. The reactions were quenched with ethanolamine (excess) for 1 hour at 0° C. Samples were concentrated under vacuum, analyzed on a 12% SDS-PAGE gel under reducing conditions, and detected with Coomassie staining.
Specifically, one of the functions of the oligosaccharide heparin in vitro is to oligomerize FGF ligand proteins and present them to the FGF receptor in a multivalent fashion. […]
FGF-8b was incubated with polymer 6 for 1 hour at 0° C. […] Samples were concentrated under vacuum, analyzed on a 12% SDS-PAGE gel under reducing conditions, and detected with Coomassie staining.
FGF-8b was incubated with heparin (Sigma, porcine intestinal mucosa, 17-19 kDa) for 1 hour at 0° C. […] Samples were concentrated under vacuum, analyzed on a 12% SDS-PAGE gel under reducing conditions, and detected with Coomassie staining. […]

Jurkat cells = test: Jurkat cell aggregation; format: cell-based
Protocol: Percent of Jurkat cells present in aggregates is plotted against the treatment. […] Aggregate formation could be inhibited by addition of 50 mM methyl a-D-mannopyranoside (a man). Compounds 9-12 were added to a final mannose concentrations of 0.5 μM or 5 μM along with a final ConA concentration of 5 μg/mL. Results are the average of at least three independent experiments and error bars represent single standard deviations.
The ability of Con A clusters formed on ROMP-derived polymers to aggregate Jurkat cells was examined initially by light microscopy (see FIG. 10). […] For Jurkat cells, inhibition occurred even at low concentrations (0.5 μM) of monovalent ligands. […] Increasing the concentration of the multivalent ligand 10-fold (5 μM) abolished aggregation activity, consistent with site saturation. […] The ability of Con A complexed to multivalent ligands to interact with cell surfaces was thus tunable. […]
Cells were pelleted at 400×g, resuspended gently into 50 μL PBS, and then added to slides for visualization at 200× magnification on a Zeiss Axioscope outfitted with the appropriate filter set. Approximately 100-200 cells were counted from random fields on each day.
Clusters were scored for at least two cells in direct contact with each other and expressed as a percentage of the total number of objects (individual cells and clusters) counted. […]

O=C(NCCOC1OC(CO)C(O)C(O)C1O)C1C[C@@H]2C=CC1C2 (stereo partly shown) [Compound 5]
concentration of maximum activity as chemoattractant (B. subtilis 011085): 1 mM

O=C[C@H](O)[C@@H](O)[C@H](O)[C@H](O)CO [glucose, reference compound]
concentration of maximum activity as chemoattractant (B. subtilis 011085): 0.5 mM

O=C[C@H](O)[C@@H](O)[C@@H](O)[C@H](O)CO [galactose, reference compound]
mean angular velocity (tumbling frequency) after addition of attractant (E. coli AW405): the mean angular velocity decreased | number of E. coli accumulated (E. coli): 120,000 bacteria

heparin
cross-linking pattern of FGF-8b (His-tagged FGF-8b): pattern in cross-linking indicative of oligomerization due to a specific ligand/scaffold interaction

CO[C@H]1O[C@H](CO)[C@@H](O)[C@H](O)[C@@H]1O [methyl α-D-mannopyranoside]
effect on Con A aggregate formation (Jurkat cells; 50 mM): inhibited | effect on Con A-mediated Jurkat cell aggregation (Jurkat cells; ligand 0.5 μM premixed with Con A 5 μg/mL): inhibited aggregation
